Reference: patent US6620843B2, “Anticancer treatment using triptolide prodrugs” (priority 2001, dated 2003)
Like-named read-outs stand apart in the source and are kept apart here.

Tested on: HT-29 human colon tumors
Method: Human Tumor Xenograft Study. An HT-29 human colon cancer cell line was purchased from ATCC (Manassas, Va.). Cells were cultured in DMEM (Dulbecco's Modified Eagle's Medium) from GIBIOBRL (Grand Island, N.Y.) with 10% fetal bovine serum (FBS) supplemented with L-glutamine and Penicillin/Streptomycin. The tumor cells were harvested when cultures reached 80-90% confluence. The supernatants were discarded and the cell pellets were suspended to 1×10^8 cells/ml in DMEM medium without FBS. HT-29 cells (5×10^6) were implanted intradermally on the back of each mouse. Tumor size was monitored by measuring the length (L), width (W), and height (H) of each tumor and calculating tumor volume (Vol=½×4/3π×(L/2)×(W/2)×H).
Mice bearing human tumor cell xenografts were treated with PG490-88 IP daily for 5 days per week. The compound was administered as the sodium salt. CPT-11 was administered IV twice per week. 5-FU was given IP daily for 5 days per week. The stock solutions of each therapeutic agent were diluted in 0.9% NaCl for dosing. The agents were given to mice at 100 μl per 10 g of mouse body weight. Mice were dosed for two weeks, and 0.9% NaCl was used as the vehicle control. Tumor volume was monitored, and toxicity of the chemotherapeutic treatment was monitored by weighing the mice every day.

With `CC(C)[C@]12O[C@H]1[C@@H]1O[C@]13[C@]1(O[C@H]1C[C@H]1C4=C(CC[C@@]13C)C(=O)OC4)[C@@H]2OC(=O)CCC(=O)O` [PG490-88, triptolide 14-succinate] the “tumor growth inhibition (in words)” value (0.125 mg/kg, by day 16) was “slightly inhibited”, the “tumor growth inhibition (in words)” value (0.25 mg/kg, by day 16) was “moderate inhibition” and the “tumor growth inhibition (in words)” value (0.75 mg/kg, by day 16) was “strongly inhibited tumor growth and induced tumor regression”. For the same compound, the “tumor growth inhibition, dose dependence (in words)” value (0.125-0.75 mg/kg) was “inhibited HT-29 tumor growth in a dose-dependent manner”, the “percent increase in mean tumor volume at day 16” value (“percent increase” for short) (PG490-88 0.125 mg/kg IP daily 5 days per week, day 16 vs initial value, vehicle control 721%) was 462% and the “percent increase” value (PG490-88 0.25 mg/kg IP daily 5 days per week, day 16 vs initial value, vehicle control 721%) was 131%. For the same compound, the “percent decrease in mean tumor volume at day 16 from the initial value” (PG490-88 0.75 mg/kg IP daily 5 days per week, day 16) was 54% and the “mean tumor volume at day 9 (in words)” value (PG490-88 0.75 mg/kg, day 9) was “decreased from the day 5 value to approximately the initial value”.
In the case of `O=c1[nH]cc(F)c(=O)[nH]1` [5-FU, 5-fluorouracil, reference compound], the “tumor growth inhibition (in words)” value (5-FU 20 mg/kg) is reported as “only slightly inhibited tumor growth”, the “percent increase” value (5-FU 20 mg/kg IP daily 5 days per week, day 16, control group 721%) is reported as 470% and the “toxicity in tumor-bearing mice” value (mouse, in vivo) is reported as “showed signs of toxicity”.
`CCc1c2c(nc3ccc(OC(=O)N4CCC(N5CCCCC5)CC4)cc13)-c1cc3c(c(=O)n1C2)COC(=O)[C@]3(O)CC` [CPT-11, irinotecan, reference compound] was tested, and the “tumor growth inhibition (in words)” value (CPT-11 22 mg/kg) was “slight to moderate”.
